# Reference: patent US20240043410A1, “SULPHAMOYL UREA DERIVATIVES CONTAINING ALKYL-OXACYCLOALKYL MOIETY AND USES THEREOF” (NodThera Limited, priority 2020, published 2024)
# How the values were obtained:
# [1] = Thermodynamic (equilibrium) solubility assay; assay type: physicochemical; settings: aqueous buffer, thermodynamic from solid; 50 mM pH 7.4 phosphate buffer, 24 hours at room temperature
# Protocol: Thermodynamic Solubility Studies. The compounds of the present disclosure were tested in an equilibrium solubility assay.
# An appropriate amount of test and control compounds were weighed into lower chambers of Whatman Mini-UniPrep vials. To these were added 50 mM pH 7.4 phosphate buffer (450 μL) to get a super-saturated suspension. The samples were vortexed for at least 2 minutes. The Whatman Mini-UniPrep vials were shaken on a shaker for 24 hours at room temperature at 800 rpm. The vials were centrifuged for 20 minutes (eg. 4000 rpm). Samples were compressed to prepare filtrates for injection into HPLC system and the concentration calculated with a standard curve. […] As shown in the table, compounds of the present disclosure may display improved properties (e.g., over the compounds in the prior art), such as enhanced potency, solubility, membrane permeability and transporter efflux.
# [2] = test system: IL-1β release upon NLRP3 activation in peripheral blood mononuclear cells (PBMC); assay: PBMC IC50 Determination Assay; assay type: cell-based; settings: Homo sapiens; LPS-primed PBMC stimulated with ATP (5 mM) or nigericin (10 μM); IL-1β by ELISA (Protocol A) or HTRF (Protocol B); salts tested
# Protocol: PBMC IC50 Determination Assay. The compounds of the present disclosure were tested for their inhibitory activity against IL-1β release upon NLRP3 activation in peripheral blood mononuclear cells (PBMC).
# Protocol A. PBMC were isolated from buffy coats by density gradient centrifugation on Histopaque-1077 (Sigma, cat no. 10771). Isolated cells were seeded into the wells of a 96-well plate and incubated for 3 h with lipopolysaccharide (LPS). Following medium exchange, the compounds of the present disclosure were added (a single compound per well) and the cells were incubated for 30 min. Next, the cells were stimulated either with ATP (5 mM) or nigericin (10 μM) for 1 h and the cell culture media from the wells were collected for further analysis. The release of IL1-β into the media was determined by a quantitative detection of IL-1β in the media using an IL-1β enzyme-linked immunosorbent assay (ELISA) Ready-SET-Go!, eBioscience cat. No. 88-7261-88. Briefly, in a first step, high affinity binding plates (Corning, Costar 9018 or NUNC Maxisorp Cat No. 44-2404) were coated overnight at 4° C. with specific capture antibody included in the kit (anti-human IL-1β ref. 14-7018-68). Subsequently, plates were blocked with blocking buffer for 1 h at room temperature (rt) and after washing with a buffer (PBS with 0.05% Tween-20) incubated with protein standard and culture media. After 2 h of incubation at rt, plates were washed and incubated with biotinylated detection antibody included in the kit (anti-human IL-1β Biotin ref. 33-7110-68) for 1 h at rt. Plates were washed and incubated with HRP-streptavidin for 30 min at rt and washed again. The signal was developed after addition of 3,3′,5,5′-tetramethylbenzidine-peroxidase (TMB) until colour appeared and the reaction was stopped by 2 M H2SO4. A microplate spectrophotometer (BioTek) was used to detect signals with 450 nm. The detection range of IL-1β 3 ELISA was 2-150 ng/mL.
# Protocol B. PBMC were isolated from buffy coats by density gradient centrifugation on Histopaque-1077 (Sigma, cat no. 10771). Isolated cells were seeded into the wells (280,000 cells/well) of a 96-well plate and incubated for 3 h with lipopolysaccharide (LPS, 1 μg/mL diluted 1000× from a 1 mg/mL stock solution). The compounds of the present disclosure were added (a single compound per well) and the cells were incubated for 30 min. Next, the cells were stimulated with ATP (5 mM final concentration diluted 20× from a 100 mM stock solution) for 1 h and the cell culture media from the wells were collected for further analysis. The release of IL-1β into the media was determined by quantitative detection of IL-1 in the media using HTRF®, CisBio cat. No. 62HIL1BPEH. Briefly, cell culture supernatant were dispensed directly into the assay plate containing antibodies labelled with the HTRF® donor and acceptor. A microplate spectrophotometer (BMG) was used to detect signals at 655 nm and 620 nm. The detection range of IL-1β HTRF® was […].
# P-glycoprotein (P-gp) = biological target: T1, P-glycoprotein (P-gp) (Homo sapiens, UniProt P08183); assay: P-gp MDCK-MDR1 permeability assay; assay type: in vitro ADME; settings: efflux ratio, MDCK-MDR1 cells
# T1 construct: expressed in transfected cells; host or cells: MDCK-MDR1 cells
# T1 sequence (P08183 whole entry): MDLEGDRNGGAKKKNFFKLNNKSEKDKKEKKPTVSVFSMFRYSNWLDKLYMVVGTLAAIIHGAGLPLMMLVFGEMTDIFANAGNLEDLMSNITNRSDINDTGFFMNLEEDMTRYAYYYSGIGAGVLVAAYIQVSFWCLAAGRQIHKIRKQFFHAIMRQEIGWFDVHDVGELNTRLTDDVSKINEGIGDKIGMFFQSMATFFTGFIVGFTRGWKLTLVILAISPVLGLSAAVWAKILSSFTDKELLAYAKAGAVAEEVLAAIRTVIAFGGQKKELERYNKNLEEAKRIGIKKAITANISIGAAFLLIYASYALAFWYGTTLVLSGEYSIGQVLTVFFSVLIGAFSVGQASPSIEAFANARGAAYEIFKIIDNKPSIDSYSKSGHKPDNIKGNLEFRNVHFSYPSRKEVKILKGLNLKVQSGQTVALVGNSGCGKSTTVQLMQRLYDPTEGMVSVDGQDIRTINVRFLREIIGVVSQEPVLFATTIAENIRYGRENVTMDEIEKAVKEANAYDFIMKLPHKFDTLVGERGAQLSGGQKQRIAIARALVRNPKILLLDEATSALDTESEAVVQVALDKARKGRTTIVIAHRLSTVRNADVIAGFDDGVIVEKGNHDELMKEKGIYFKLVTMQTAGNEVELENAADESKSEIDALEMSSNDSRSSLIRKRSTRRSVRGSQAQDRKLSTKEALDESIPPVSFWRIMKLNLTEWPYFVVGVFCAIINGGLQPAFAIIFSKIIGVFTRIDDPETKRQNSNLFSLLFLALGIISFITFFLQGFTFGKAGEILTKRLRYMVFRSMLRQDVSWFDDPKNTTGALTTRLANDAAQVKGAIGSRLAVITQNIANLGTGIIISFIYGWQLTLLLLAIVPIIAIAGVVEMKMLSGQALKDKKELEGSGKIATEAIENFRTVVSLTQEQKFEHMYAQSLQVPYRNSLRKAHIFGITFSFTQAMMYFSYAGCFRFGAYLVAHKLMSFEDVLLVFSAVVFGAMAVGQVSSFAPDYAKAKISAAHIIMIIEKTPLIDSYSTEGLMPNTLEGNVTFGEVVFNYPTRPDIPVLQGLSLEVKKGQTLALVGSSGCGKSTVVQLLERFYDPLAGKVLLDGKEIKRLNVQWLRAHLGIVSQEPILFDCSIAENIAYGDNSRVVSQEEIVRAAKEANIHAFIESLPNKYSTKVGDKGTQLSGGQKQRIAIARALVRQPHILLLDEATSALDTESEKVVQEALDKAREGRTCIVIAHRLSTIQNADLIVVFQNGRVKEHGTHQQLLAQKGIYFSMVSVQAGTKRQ
# Protocol: P-gp MDCK-MDR1 Studies. The compounds of the present disclosure were tested in a MDCK-MDR1 permeability assay to assess whether they are actively transported out of cells by the efflux protein, P-glycoprotein (P-gp).
# Protocol. MDCK-MDR1 cells were used between passage numbers 6-30. Cells were seeded onto Millipore Multiscreen Transwell plates at 3.4×10^5 cells/cm^2. The cells were cultured in DMEM and media was changed on Day 3. On Day 4 the P-gp inhibition study was performed. Cell culture and assay incubations were carried out at 37° C. in an atmosphere of 5% CO2 with a relative humidity of 95%. On the day of the assay, the monolayers were prepared by rinsing both apical and basolateral surfaces twice with warmed (37° C.) transport buffer (Hanks Balanced Salt Solution [HBSS] containing 25 mM HEPES and 4.45 mM glucose, pH 7.4). Cells were then incubated with transport buffer containing test compound or positive control inhibitor (elacridar) in both apical and basolateral compartments for 30 minutes at 37° C. The dosing solutions were prepared by diluting digoxin and test compound where applicable to give a final digoxin concentration of 5 μM (final DMSO concentration of 1% v/v). The fluorescent integrity marker lucifer yellow was prepared in receiver solutions in vehicle or test compound-containing transport buffer. After pre-incubation, the transport buffer was removed from both apical and basolateral compartments and replaced with the appropriate dosing or receiver solution.
# For assessment of B-A permeability, transport buffer was removed from the basolateral companion plate and replaced with dosing solution. Fresh transport buffer containing lucifer yellow and test compound where applicable (final DMSO concentration 1% v/v) was added to the apical compartment insert, which was then placed into the companion plate. After a 90-minute incubation the apical compartment inserts and the companion plates were separated and compartments sampled for analysis. Seven concentrations of test compound (up to 100 μM) were assessed in addition to a vehicle control (0 μM). A triplicate determination of each concentration was performed. The positive control inhibitor was evaluated in parallel. [^3H]-digoxin was quantified by liquid scintillation counting to give disintegrations per minute (dpm). The integrity of the monolayer throughout the experiment was checked by monitoring lucifer yellow permeation using fluorimetric analysis.
# The efflux ratio (ER) values of compounds of the present disclosure are shown in Table B below (“****” means <3; “***” 3≥ and <10; “**” means ≥10 and <30; “*” means ≥30).
# PAMPA permeability assay = assay type: in vitro ADME; settings: 10 μM donor, PBS, 4 hours at room temperature, lecithin/dodecane membrane
# Protocol: PAMPA Studies. The compounds of the present disclosure were tested in a PAMPA permeability assay to assess passive transcellular permeation.
# Protocol. 0.2 mM working solution was prepared by diluting 10 mM stock solution with DMSO. 10 μM donor solution (5% DMSO) was prepared by diluting 20 μL of working solution with 380 μL PBS. 150 μL of 10 μM donor solutions to each well of the donor plate, whose PVDF membrane was precoated with 5 μL of 1% lecithin/dodecane mixture. Duplicates were prepared. 300 μL of PBS was added to each well of the PTFE acceptor plate. The donor plate and acceptor plate were combined and incubated for 4 hours at room temperature with shaking at 300 rpm. Preparation of TO sample: 20 μL donor solution was transferred to new well followed by the addition of 250 μL PBS (DF: 13.5), 130 μL ACN (containing internal standard) as TO sample. Preparation of acceptor sample: The plate was removed from incubator. 270 μL solution was transferred from each acceptor well and mixed with 130 μL ACN (containing internal standard) as acceptor sample. Preparation of donor sample: 20 μL solution was transferred from each donor well and mixed with 250 μL PBS (DF: 13.5), 130 μL ACN (containing internal standard) as donor sample. Acceptor samples and donor samples were all analysed by LC-MS/MS.
# The measured PAMPA permeability values of compounds of the present disclosure are shown in Table B below (“$$$$” means >10 nm/“$$$” means ≥3 and <10 nm/s; “$$” means ≥1 and <3 nm/s; “$” means <1 nm/s).
solubility thermodynamic at 24 h [1] [µg/mL],MDCK-MDR1 ER (P-glycoprotein (P-gp)),PAMPA Pe (PAMPA permeability assay),Compound,IC50 [2] [nM]
3000 to 10000,** (“**” means ≥10 and <30),$$$ (“$$$” means ≥3 and <10 nm/s),"Cn1cc(N(CC2CCCCO2)S(=O)(=O)NC(=O)Nc2c3c(cc4c2CC4)CC3)cn1 (stereo in doubt) [Compound 7A, Sodium [(1-methyl-1H-pyrazol-4-yl)({[(2S)-oxan-2-yl]methyl})sulfamoyl]-({tricyclo[6.2.0.0^3,6]deca-1,3(6),7-trien-2-yl}carbamoyl)azanide]",< 100
3000 to 10000,* (“*” means ≥30),$$$ (“$$$” means ≥3 and <10 nm/s),"Cn1cc(N(CC2CCCCO2)S(=O)(=O)NC(=O)Nc2c3c(cc4c2CC4)CC3)cn1 (stereo in doubt) [Compound 7B, Sodium [(1-methyl-1H-pyrazol-4-yl)({[(2R)-oxan-2-yl]methyl})sulfamoyl]-({tricyclo[6.2.0.0^3,6]deca-1,3(6),7-trien-2-yl}carbamoyl)azanide)]",< 100
–,* (“*” means ≥30),–,"Cn1cc(N(C[C@@H]2CCCO2)S(=O)(=O)NC(=O)Nc2c3c(cc4c2CC4)CC3)cn1 [Compound 3A, Sodium [(1-methyl-1H-pyrazol-4-yl)({[(2S)-oxolan-2-yl]methyl})sulfamoyl]-({tricyclo[6.2.0.0^3,6]deca-1,3(6),7-trien-2-yl}carbamoyl)azanide]",< 100
–,* (“*” means ≥30),–,"Cn1cc(N(C[C@H]2CCCO2)S(=O)(=O)NC(=O)Nc2c3c(cc4c2CC4)CC3)cn1 [Compound 3B, Sodium [(1-methyl-1H-pyrazol-4-yl)({[(2R)-oxolan-2-yl]methyl})sulfamoyl]-({tricyclo[6.2.0.0^3,6]deca-1,3(6),7-trien-2-yl}carbamoyl)azanide]",< 100
